pIC50: −log10 of the molar value. Where a name gives a salt, the structure may show the parent alone.
Key:
[1] = test system: A431 cells (human epidermoid carcinoma); assay: In vitro tumor cell proliferation assay (Cell Titer-Glo luminescent cell viability), A431; format: cell-based; settings: A-431, 72 h, 72 hours of drug exposure, ATP luminescence readout, read-out: IC50, anti-proliferative activity (inhibition of cell proliferation)
Outline: (§1)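 A431 or BT474 cells were exposed 72 h at 37°C to serially diluted compounds (final 100 μM down to 64 pM, 0.1% DMSO). Viable cells were read by ATP luminescence (CellTiter-Glo) and IC50 values derived.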

[2] = test system: BT474 (human breast carcinoma); assay: In vitro tumor cell proliferation assay (Cell Titer-Glo luminescent cell viability), BT474; format: cell-based; settings: BT-474, 72 h, BT474 cells, 72 hours of drug exposure, ATP luminescence readout, read-out: IC50, anti-proliferative activity (inhibition of cell proliferation)
Outline: as §1

SMILES	pIC50 [1]	pIC50 [2]
CN1CCN(CCn2ncc3c2CCc2c-3sc3ncnc(Nc4ccc5c(cnn5Cc5cccc(F)c5)c4)c23)CC1 [Example 295, 3-[2-(4-methylpiperazin-1-yl)ethyl]-N-[1-(3-fluorobenzyl)-1H-indazol-5-yl]-4,5-dihydro-3H-pyrimido[5′,4′:4,5]thieno[2,3-e]indazol-6-amine]	≥ 5.30	≥ 6.00
C#Cc1cccc(Nc2ncnc3sc4c(c23)CCc2nn(CCN3CCN(C)CC3)cc2-4)c1 [Example 51, N-(3-ethynylphenyl)-2-[2-(4-methylpiperazin-1-yl)ethyl]-4,5-dihydro-2H-pyrimido[5′,4′:4,5]thieno[2,3-e]indazol-6-amine]	≥ 5.30	≥ 4.30
OCCNCCn1ncc2c1CCc1c-2sc2ncnc(Nc3ccc4c(cnn4Cc4cccc(F)c4)c3)c12 [Example 300, 2-{[2-(6-{[1-(3-fluorobenzyl)-1H-indazol-5-yl]amino}-4,5-dihydro-3H-pyrimido[5′,4′:4,5]thieno[2,3-e]indazol-3-yl)ethyl]amino}ethanol]	≥ 5.30	≥ 6.00
CN(C)[C@H]1CCN(C(=O)Cn2cc3c(n2)CCc2c-3sc3ncnc(Nc4ccc(OCc5cccc(F)c5)c(Cl)c4)c23)C1 [Example 177, N-{3-chloro-4-[(3-fluorobenzyl)oxy]phenyl}-2-{2-[(3S)-3-(dimethylamino)pyrrolidin-1-yl]-2-oxoethyl}-4,5-dihydro-2H-pyrimido[5′,4′:4,5]thieno[2,3-e]indazol-6-amine]	≥ 5.30	≥ 6.00
CCCN1CCC(Cn2cc3c(n2)CCc2c-3sc3ncnc(Nc4ccc(OCc5cccc(F)c5)c(Cl)c4)c23)CC1 [Example 243, N-{3-chloro-4-[(3-fluorobenzyl)oxy]phenyl}-2-[(1-propylpiperidin-4-yl)methyl]-4,5-dihydro-2H-pyrimido[5′,4′:4,5]thieno[2,3-e]indazol-6-amine]	≥ 5.30	≥ 6.00
CN1CCN(C[C@@H](O)Cn2ncc3c2CCc2c-3sc3ncnc(Nc4ccc(OCc5cccc(F)c5)c(Cl)c4)c23)CC1 [Example 167, (2R)-1-[6-({3-chloro-4-[(3-fluorobenzyl)oxy]phenyl}amino)-4,5-dihydro-3H-pyrimido[5′,4′:4,5]thieno[2,3-e]indazol-3-yl]-3-(4-methylpiperazin-1-yl)propan-2-ol trifluoroacetate (salt)]	≥ 4.30	≥ 6.00
O=C(O)Cn1cc2c(n1)CCc1c-2sc2ncnc(Nc3ccc(OCc4cccc(F)c4)c(Cl)c3)c12 [Example 175, [6-({3-chloro-4-[(3-fluorobenzyl)oxy]phenyl}amino)-4,5-dihydro-2H-pyrimido[5′,4′:4,5]thieno[2,3-e]indazol-2-yl]acetic acid]	≥ 4.30	≥ 5.30
Fc1ccc(Nc2ncnc3sc4c(c23)CCc2c-4cnn2CCn2ccnc2)cc1Cl [Example 97, N-(3-chloro-4-fluorophenyl)-3-[2-(1H-imidazol-1-yl)ethyl]-4,5-dihydro-3H-pyrimido[5′,4′:4,5]thieno[2,3-e]indazol-6-amine]	≥ 5.30	≥ 5.30
Fc1ccc(Nc2ncnc3sc4c(c23)CCc2nn(CCN3CCCC3)cc2-4)cc1Cl [Example 9, N-(3-chloro-4-fluorophenyl)-2-(2-pyrrolidin-1-ylethyl)-4,5-dihydro-2H-pyrimido[5′,4′:4,5]thieno[2,3-e]indazol-6-amine]	≥ 5.30	≥ 5.30
Fc1cccc(Cn2ncc3cc(Nc4ncnc5sc6c(c45)CCc4c-6cnn4CCN4CCNCC4)ccc32)c1 [Example 298, N-[1-(3-fluorobenzyl)-1H-indazol-5-yl]-3-(2-piperazin-1-ylethyl)-4,5-dihydro-3H-pyrimido[5′,4′:4,5]thieno[2,3-e]indazol-6-amine]	≥ 5.30	≥ 6.00
CCN(CCOC)CCn1cc2c(n1)CCc1c-2sc2ncnc(Nc3ccc(F)c(Cl)c3)c12 [Example 24, N-(3-chloro-4-fluorophenyl)-2-{2-[ethyl(2-methoxyethyl)amino]ethyl}-4,5-dihydro-2H-pyrimido[5′,4′:4,5]thieno[2,3-e]indazol-6-amine]	≥ 5.30	≥ 5.30
CN1CCN(CCn2cc3c(n2)CCc2c-3sc3ncnc(Nc4ccc(OC(F)(F)F)c(Cl)c4)c23)CC1 [Example 53, N-[3-chloro-4-(trifluoromethoxy)phenyl]-2-[2-(4-methylpiperazin-1-yl)ethyl]-4,5-dihydro-2H-pyrimido[5′,4′:4,5]thieno[2,3-e]indazol-6-amine]	≥ 5.30	≥ 6.00
CNC[C@@H](O)Cn1cc2c(n1)CCc1c-2sc2ncnc(Nc3ccc(OCc4cccc(F)c4)c(Cl)c3)c12 [Example 155, (2R)-1-[6-({3-chloro-4-[(3-fluorobenzyl)oxy]phenyl}amino)-4,5-dihydro-2H-pyrimido[5′,4′:4,5]thieno[2,3-e]indazol-2-yl]-3-(methylamino)propan-2-ol trifluoroacetate (salt)]	≥ 4.30	≥ 6.00
O=C(Cn1ncc2c1CCc1c-2sc2ncnc(Nc3ccc(OCc4cccc(F)c4)c(Cl)c3)c12)N(CCO)CCO [Example 212, 2-[6-({3-chloro-4-[(3-fluorobenzyl)oxy]phenyl}amino)-4,5-dihydro-3H-pyrimido[5′,4′:4,5]thieno[2,3-e]indazol-3-yl]-N,N-bis(2-hydroxyethyl)acetamide]	≥ 4.30	≥ 6.00
CN1CCN(CCn2cc3c(n2)CCc2c-3sc3ncnc(Nc4ccc(N5CCOCC5)c(Cl)c4)c23)CC1 [Example 48, N-(3-chloro-4-morpholin-4-ylphenyl)-2-[2-(4-methylpiperazin-1-yl)ethyl]-4,5-dihydro-2H-pyrimido[5′,4′:4,5]thieno[2,3-e]indazol-6-amine]	≥ 4.30	≥ 5.30
CN1CCN(CCn2cc3c(n2)CCc2c-3sc3ncnc(Nc4ccc(OCc5ccc(F)cc5)c(Cl)c4)c23)CC1 [Example 326, N-{3-chloro-4-[(4-fluorobenzyl)oxy]phenyl}-2-[2-(4-methylpiperazin-1-yl)ethyl]-4,5-dihydro-2H-pyrimido[5′,4′:4,5]thieno[2,3-e]indazol-6-amine]	≥ 5.30	≥ 5.30
NC[C@@H](O)Cn1ncc2c1CCc1c-2sc2ncnc(Nc3ccc(OCc4cccc(F)c4)c(Cl)c3)c12 [Example 162, (2R)-1-amino-3-[6-({3-chloro-4-[(3-fluorobenzyl)oxy]phenyl}amino)-4,5-dihydro-3H-pyrimido[5′,4′:4,5]thieno[2,3-e]indazol-3-yl]propan-2-ol trifluoroacetate (salt)]	≥ 4.30	≥ 5.30
CN1CCN(C(=O)Cn2ncc3c2CCc2c-3sc3ncnc(Nc4ccc(OCc5cccc(F)c5)c(Cl)c4)c23)CC1 [Example 205, N-{3-chloro-4-[(3-fluorobenzyl)oxy]phenyl}-3-[2-(4-methylpiperazin-1-yl)-2-oxoethyl]-4,5-dihydro-3H-pyrimido[5′,4′:4,5]thieno[2,3-e]indazol-6-amine]	≥ 5.30	≥ 6.00
OCCNC[C@@H](O)Cn1cc2c(n1)CCc1c-2sc2ncnc(Nc3ccc(OCc4cccc(F)c4)c(Cl)c3)c12 [Example 151, (2R)-1-[6-({3-chloro-4-[(3-fluorobenzyl)oxy]phenyl}amino)-4,5-dihydro-2H-pyrimido[5′,4′:4,5]thieno[2,3-e]indazol-2-yl]-3-[(2-hydroxyethyl)amino]propan-2-ol trifluoroacetate (salt)]	≥ 4.30	≥ 6.00
OCC(O)Cn1ncc2c1CCc1c-2sc2ncnc(Nc3ccc(OCc4cccc(F)c4)c(Cl)c3)c12 (centres unmarked) [Example 132, 3-[6-({3-chloro-4-[(3-fluorobenzyl)oxy]phenyl}amino)-4,5-dihydro-3Hpyrimido[5′,4′:4,5]thieno[2,3-e]indazol-3-yl]propane-1,2-diol]	≥ 5.30	≥ 6.00
NCC(=O)OCCn1cc2c(n1)CCc1c-2sc2ncnc(Nc3ccc(OCc4cccc(F)c4)c(Cl)c3)c12 [Example 315, 2-[6-({3-chloro-4-[(3-fluorobenzyl)oxy]phenyl}amino)-4,5-dihydro-2H-pyrimido[5′,4′:4,5]thieno[2,3-e]indazol-2-yl]ethyl glycinate]	≥ 5.30	≥ 6.00
CN1CCN(CCn2ncc3c2CCc2c-3sc3ncnc(Nc4ccc(F)c(Cl)c4)c23)CC1 [Example 90, N-(3-chloro-4-fluorophenyl)-3-[2-(4-methylpiperazin-1-yl)ethyl]-4,5-dihydro-3H-pyrimido[5′,4′:4,5]thieno[2,3-e]indazol-6-amine trifluoroacetate]	≥ 5.30	≥ 5.30
Fc1cccc(COc2ccc(Nc3ncnc4sc5c(c34)CCc3nn(CCN4CCNCC4)cc3-5)cc2Cl)c1 [Example 176, N-{3-chloro-4-[(3-fluorobenzyl)oxy]phenyl}-2-(2-piperazin-1-ylethyl)-4,5-dihydro-2H-pyrimido[5′,4′:4,5]thieno[2,3-e]indazol-6-amine]	≥ 5.30	≥ 6.00
CC(C)(C)OC(=O)N1CCC(n2cc3c(n2)CCc2c-3sc3ncnc(Nc4ccc(OCc5cccc(F)c5)c(Cl)c4)c23)CC1 [Example 216, tert-butyl 4-[6-({3-chloro-4-[(3-fluorobenzyl)oxy]phenyl}amino)-4,5-dihydro-2H-pyrimido[5′,4′:4,5]thieno[2,3-e]indazol-2-yl]piperidine-1-carboxylate]	≥ 4.30	≥ 4.30
O=C(CN1CCNCC1)N1CCC(n2cc3c(n2)CCc2c-3sc3ncnc(Nc4ccc(OCc5cccc(F)c5)c(Cl)c4)c23)CC1 [Example 221, N-{3-chloro-4-[(3-fluorobenzyl)oxy]phenyl}-2-[1-(piperazin-1-ylacetyl)piperidin-4-yl]-4,5-dihydro-2H-pyrimido[5′,4′:4,5]thieno[2,3-e]indazol-6-amine]	≥ 4.30	≥ 6.00

Source: patent US8207172B2 (Bayer Intellectual Property GmbH, priority 2004, dated 2012)
